Measurements as given in patent US20090082203A1, “INSECTICIDAL BIS(SUBSTITUTED PHENYL)-1-{[4-(SATURATED HETEROCYCLYL-SUBSTITUTED)PHENYLMETHYL]- (4-PIPERIDYL)}METHANE DERIVATIVES” (priority 2004, published 2009).

Test system: tobacco budworm (Heliothis virescens [Fabricius])
Assay: surface-treated diet test against tobacco budworm
Assay type: in vivo
Conditions: 0.25 millimolar on the surface of the diet, second instar larvae, five-day exposure; for Percent Mortality: compared to the total number of insects infested; for Percent Growth Inhibition: inhibition of insect weight relative to untreated controls

Structure (SMILES)	Percent Mortality	Percent Growth Inhibition
CC1(C)OCC(c2ccc(C[N+]3([O-])CCC(C(O)(c4ccc(OC(F)(F)F)cc4)c4ccc(OC(F)(F)F)cc4)CC3)cc2)O1 (stereo not drawn) [Compound 77]	100%	100%
OC(c1ccc(OC(F)(F)F)cc1)(c1ccc(OC(F)(F)F)cc1)C1CCN(Cc2ccc(C3OCCO3)c(F)c2)CC1 [Compound 173]	100%	100%
C[C@H]1OC(c2ccc(C[N+]3([O-])CCC(C(O)(c4ccc(OC(F)(F)F)cc4)c4ccc(OC(F)(F)F)cc4)CC3)cc2)O[C@@H]1C (relative stereo) [Compound 124]	100%	100%
OC(c1ccc(OC(F)(F)F)cc1)(c1ccc(OC(F)(F)F)cc1)C1CCN(Cc2ccc(C3OCCO3)c(Cl)c2)CC1 [Compound 171]	100%	100%
COCC1COC(c2ccc(C[N+]3([O-])CCC(C(O)(c4ccc(OC(F)(F)F)cc4)c4ccc(OC(F)(F)F)cc4)CC3)cc2)O1 (stereo not drawn) [Compound 61]	100%	100%
CC1(C)OCC(COc2ccc(CN3CCC(C(O)(c4ccc(OC(F)(F)F)cc4)c4ccc(OC(F)(F)F)cc4)CC3)cc2)O1 (stereo not drawn) [Compound 189, bis[4-(trifluoromethoxy)-phenyl][1-({4-[(2,2-dimethyl(1,3-dioxolan-4-yl))methoxy]phenyl}methyl)(4-piperidyl)]methan-1-ol]	100%	100%
CC1COC(c2ccc(C[N+]3([O-])CCC(C(O)(c4ccc(OC(F)(F)F)cc4)c4ccc(OC(F)(F)F)cc4)CC3)cc2F)O1 (stereo not drawn) [Compound 180]	100%	100%
C=CCOCC1COC(c2ccc(CN3CCC(C(O)(c4ccc(OC(F)(F)F)cc4)c4ccc(OC(F)(F)F)cc4)CC3)cc2)O1 (stereo not drawn) [Compound 91]	100%	100%
C=CC1COC(c2ccc(CN3CCC(C(O)(c4ccc(OC(F)(F)F)cc4)c4ccc(OC(F)(F)F)cc4)CC3)cc2)O1 (stereo not drawn) [Compound 52]	100%	100%
CC1CCOC(c2ccc(C[N+]3([O-])CCC(C(O)(c4ccc(OC(F)(F)F)cc4)c4ccc(OC(F)(F)F)cc4)CC3)cc2)O1 (stereo not drawn) [Compound 68]	100%	100%
CC1(C)COC(c2ccc(CN3CCC(C(O)(c4ccc(OC(F)(F)F)cc4)c4ccc(OC(F)(F)F)cc4)CC3)cc2)O1 (stereo not drawn) [Compound 111]	100%	100%
[O-][N+]1(Cc2ccc(C3OCC(COc4ccccc4)O3)cc2)CCC(C(O)(c2ccc(OC(F)(F)F)cc2)c2ccc(OC(F)(F)F)cc2)CC1 (stereo not drawn) [Compound 94]	100%	100%
